This is an account of results in patent US5563155A, “Individual stereosiomers of 7-[3-(aminoalkyl)-1-pyrrolidinyl]-quinolones and naphthyridones as antibacterial agents” (Warner-Lambert Company, priority 1995, dated 1996).

One may read the NOAEL as the highest tested level that showed no adverse finding.

Values after ≈ are worked out from the molar mass of the structure shown. Where two headings read alike, the source gives them in different places.

One series concerns Ent. cloacae MA2646. Description: in vitro antibacterial activity, microtitration dilution (MIC), Ent. cloacae MA2646. Type of series: cell-based. As to conditions: Enterobacter cloacae, read-out: minimum inhibiting concentration (MIC). The method, boiled down: (§1)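 MIC determined in vitro by microtitration broth dilution; values reported in μg/mL.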
The subject of series [1] is Esch. coli Vogel. Put plainly: in vitro antibacterial activity, microtitration dilution (MIC), Esch. coli Vogel. The series is classed as cell-based. As to conditions: Escherichia coli, read-out: minimum inhibiting concentration (MIC). The method, boiled down: as §1
A further series deals with Klebs. pneumoniae MGH-2. Put plainly: in vitro antibacterial activity, microtitration dilution (MIC), Klebs. pneumoniae MGH-2. As to conditions: Klebsiella pneumoniae, MGH2, read-out: minimum inhibiting concentration (MIC). Type of series: cell-based. The method, boiled down:
as §1

The next series concerns Prot. rettgeri M 1771. Description: in vitro antibacterial activity, microtitration dilution (MIC), Prot. rettgeri M 1771. As to conditions: Providencia rettgeri, M1771, read-out: minimum inhibiting concentration (MIC). Type of series: cell-based. The method, boiled down: as §1
The subject of series [2] is Pseud. aeruginosa UI-18. Description: in vitro antibacterial activity, microtitration dilution (MIC), Pseud. aeruginosa UI-18. The series is classed as cell-based. As to conditions: Pseudomonas aeruginosa, UI18, read-out: minimum inhibiting concentration (MIC). An outline of the steps:
as §1

A further series deals with Staph. aureus H 228. Put plainly: in vitro antibacterial activity, microtitration dilution (MIC), Staph. aureus H 228. Type of series: cell-based. Conditions: Staphylococcus aureus, H228, read-out: minimum inhibiting concentration (MIC). The method, boiled down:
as §1

The test system of another series is Strep. faecalis MGH-2. Put plainly: in vitro antibacterial activity, microtitration dilution (MIC), Strep. faecalis MGH-2. Type of series: cell-based. As to conditions: Enterococcus faecalis, MGH2, read-out: minimum inhibiting concentration (MIC). The method, boiled down:
as §1

Series [3] relates to Strep. pheumoniae SV-1. Put plainly: in vitro antibacterial activity, microtitration dilution (MIC), Strep. pneumoniae SV-1. The series is classed as cell-based. Conditions: Streptococcus pneumoniae, SV1, read-out: minimum inhibiting concentration (MIC). The method, boiled down:
as §1

The subject of series [4] is Strep. pyogenes C-203. Description: in vitro antibacterial activity, microtitration dilution (MIC), Strep. pyogenes C-203. As to conditions: Streptococcus pyogenes, C203, read-out: minimum inhibiting concentration (MIC). The series is classed as cell-based. The method, boiled down: as §1
For series [5], the system named is Esch. coli Vogel. Put plainly: median protective dose in mice given lethal systemic infections, Esch. coli Vogel. The series is classed as in vivo. As to conditions: Escherichia coli, single dose at time of challenge, read-out: median protective dose (PD50). The method, boiled down: (§2)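 Mice given lethal systemic infections received single compound doses at time of challenge; PD50 (mg/kg) is the median protective dose.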

The test system of series [6] is Pseud. aeruginosa UI-18. Description: median protective dose in mice given lethal systemic infections, Pseud. aeruginosa UI-18. Type of series: in vivo. Conditions: Pseudomonas aeruginosa, single dose at time of challenge, read-out: median protective dose (PD50). How it is done:
(§3) The in vivo activity is obtained when the compounds are tested according to the procedure of Miller, et al (Proc. Soc. Exp. Biol. Med. 57, 261, 1944). The median protective dose (PD50) was determined in mice given lethal systemic infections. Single doses of compound were given at time of challenge.
(§4) By use of the above methods, the following minimum inhibiting concentration values (MICs in μg/mL), PD50 's in mg/kg, no effect phototoxicity dose in mg/kg and the cytotoxicity IC50 in μg/mL were obtained for representative enantiomers of the invention and compounds of the prior art as shown in the table.
(§5) The in vivo data as PD50 s are reported below the line of MICs for the same compound.

Series [7] relates to Strep. pheumoniae SV-1. Description: median protective dose in mice given lethal systemic infections, Strep. pneumoniae SV-1. As to conditions: Streptococcus pneumoniae, single dose at time of challenge, read-out: median protective dose (PD50). Type of series: in vivo. How it is done: as §3, §4, §5
The test system of series [8] is Strep. pyogenes C-203. Put plainly: median protective dose in mice given lethal systemic infections, Strep. pyogenes C-203. Type of series: in vivo. As to conditions: Streptococcus pyogenes, single dose at time of challenge, read-out: median protective dose (PD50). The method, boiled down:
as §2

A further series is described as follows: in vivo. The arrangement: species or system mice. As to conditions: mouse, po. Here is the method:
The phototoxicity data is obtained using depilated mice. The compound was administered orally each day for four successive days, followed each day by 3 hours of UVA radiation. The mice were examined for any positive signs (redness, erythema) relative to control animals. The no effect dose and the 50% effect dose were determined. By use of the above methods, the following minimum inhibiting concentration values (MICs in μg/mL), PD50 's in mg/kg, no effect phototoxicity dose in mg/kg and the cytotoxicity IC50 in μg/mL were obtained for representative enantiomers of the invention and compounds of the prior art as shown in the table.

Series [9] in a line: cytotoxicity, hamster V-79 cells, colony reduction. As to conditions: 3 hours treatment, colonies counted after 5 days, read-out: Cytotox (cytotoxicity IC50). Type of series: cell-based. An outline of the steps:
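Cells were grown overnight, exposed to drug for 3 h, washed and replated. Colonies were counted after 5 days, and IC50 was taken as the concentration reducing colonies by 50% versus control.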

A further series deals with Staph. aureus UC-76. Put plainly: in vitro antibacterial activity, microtitration dilution (MIC), Staph. aureus UC-76. Type of series: cell-based. Conditions: Staphylococcus aureus, UC76, read-out: minimum inhibiting concentration (MIC). The method, boiled down: as §1

Consider `C[C@H](N)[C@@H]1CCN(c2nc3c(cc2F)c(=O)c(C(=O)O)cn3C2CC2)C1` [Example 7, 3R,1S-1-cyclopropyl-6-fluoro-7-[3-(1-aminoethyl)-1-pyrrolidinyl]-1,4-dihydro-4-oxo-1,8-naphthyridine-3-carboxylic acid], for which the MIC in the series with Ent. cloacae MA2646 is 0.025 µg/mL (≈ 0.0694 µM); with Esch. coli Vogel [1] it was 0.025 µg/mL (≈ 0.0694 µM); in the series on Klebs. pneumoniae MGH-2 it was 0.05 µg/mL (≈ 0.139 µM); with Prot. rettgeri M 1771, 0.1 µg/mL (≈ 0.277 µM); in the series with Pseud. aeruginosa UI-18 [2], 0.4 µg/mL (≈ 1.11 µM); in the series with Staph. aureus H 228, 0.025 µg/mL (≈ 0.0694 µM). The MIC with Strep. faecalis MGH-2 was found to be 0.025 µg/mL (≈ 0.0694 µM); with Strep. pheumoniae SV-1 [3] it was 0.006 µg/mL (≈ 0.0166 µM); with Strep. pyogenes C-203 [4], 0.013 µg/mL (≈ 0.0361 µM). For the same molecule, the ED50 in the series on Esch. coli Vogel [5] (PO) was determined as 2 mg/kg; with Esch. coli Vogel [5] (SC), 0.4 mg/kg; with Pseud. aeruginosa UI-18 [6] (UI18, PO), 15 mg/kg; in the series on Pseud. aeruginosa UI-18 [6] (UI18, SC), 4 mg/kg; with Strep. pheumoniae SV-1 [7] (SV1, PO) it was 3 mg/kg; with Strep. pheumoniae SV-1 [7] (SV1, SC) it was 1 mg/kg. Further, the ED50 stood at 3 mg/kg in the series on Strep. pyogenes C-203 [8] (C203, PO) and 1 mg/kg in the series with Strep. pyogenes C-203 [8] (C203, SC). The molecule also had an NOAEL at 96 h in “in vivo” of 30 mg/kg. Moreover, the CC50 at 3 h in series [9] is 33 µg/mL (≈ 91.6 µM).

For the molecule `C[C@H]([C@@H]1CCN(c2nc3c(cc2F)c(=O)c(C(=O)O)cn3C2CC2)C1)N(C)C` [Example 72, 3R,1R-1-cyclopropyl-7-[3-[1-(dimethylamino)ethyl]-1-pyrrolidinyl]-6-fluoro-1,4,-dihydro-4-oxo-1,8-naphthyridine-3-carboxylic acid], the MIC worked out at 0.2 µg/mL (≈ 0.515 µM) in the series with Ent. cloacae MA2646; 0.1 µg/mL (≈ 0.257 µM) in the series with Esch. coli Vogel [1]; 0.2 µg/mL (≈ 0.515 µM) with Klebs. pneumoniae MGH-2; 0.8 µg/mL (≈ 2.06 µM) in the series on Prot. rettgeri M 1771; 1.6 µg/mL (≈ 4.12 µM) in the series on Pseud. aeruginosa UI-18 [2]; 0.025 µg/mL (≈ 0.0644 µM) in the series on Staph. aureus H 228. Also, the MIC with Staph. aureus UC-76 amounted to 0.025 µg/mL (≈ 0.0644 µM); in the series with Strep. faecalis MGH-2, 0.1 µg/mL (≈ 0.257 µM); with Strep. pheumoniae SV-1 [3] it was 0.025 µg/mL (≈ 0.0644 µM); in the series on Strep. pyogenes C-203 [4] it was 0.05 µg/mL (≈ 0.129 µM). The ED50 was 1 mg/kg with Esch. coli Vogel [5] (PO); 1 mg/kg in the series with Esch. coli Vogel [5] (SC); 17 mg/kg with Pseud. aeruginosa UI-18 [6] (UI18, PO); 11 mg/kg with Pseud. aeruginosa UI-18 [6] (UI18, SC); 2 mg/kg in the series with Strep. pheumoniae SV-1 [7] (SV1, PO); 2 mg/kg in the series with Strep. pheumoniae SV-1 [7] (SV1, SC). Also, the ED50 in the series with Strep. pyogenes C-203 [8] (C203, PO) is 2 mg/kg; in the series with Strep. pyogenes C-203 [8] (C203, SC) it was 2 mg/kg. This molecule also displayed an NOAEL at 96 h in “in vivo” of less than 30 mg/kg. In addition, the CC50 at 3 h in series [9] turned out to be 120 µg/mL (≈ 309 µM).

On to `C[C@@H](N)[C@@H]1CCN(c2nc3c(cc2F)c(=O)c(C(=O)O)cn3C2CC2)C1` [Example 8], for which the MIC in the series with Ent. cloacae MA2646 came to 0.05 µg/mL (≈ 0.139 µM); with Esch. coli Vogel [1], 0.05 µg/mL (≈ 0.139 µM); with Klebs. pneumoniae MGH-2, 0.1 µg/mL (≈ 0.277 µM); in the series with Prot. rettgeri M 1771, 0.4 µg/mL (≈ 1.11 µM); with Pseud. aeruginosa UI-18 [2], 0.8 µg/mL (≈ 2.22 µM); in the series on Staph. aureus H 228, 0.05 µg/mL (≈ 0.139 µM). For the same molecule, the MIC with Staph. aureus UC-76 was found to be 0.06 µg/mL (≈ 0.166 µM); in the series on Strep. faecalis MGH-2, 0.05 µg/mL (≈ 0.139 µM); in the series with Strep. pheumoniae SV-1 [3] it was 0.006 µg/mL (≈ 0.0166 µM); with Strep. pyogenes C-203 [4], 0.013 µg/mL (≈ 0.0361 µM). The ED50 came to 6 mg/kg in the series on Esch. coli Vogel [5] (PO); 1 mg/kg in the series on Esch. coli Vogel [5] (SC); 35 mg/kg in the series with Pseud. aeruginosa UI-18 [6] (UI18, PO); 12 mg/kg with Pseud. aeruginosa UI-18 [6] (UI18, SC); 14 mg/kg in the series on Strep. pheumoniae SV-1 [7] (SV1, PO); 2 mg/kg with Strep. pheumoniae SV-1 [7] (SV1, SC). Besides, the no-observed-adverse-effect level (NOAEL) at 96 h in the series “in vivo” is 55 mg/kg. Besides, the CC50 at 3 h in [9] amounted to 100 µg/mL (≈ 277 µM).
